Results on 24 compounds are retold here after patent US6022885A, “Pyrrolidine and thiazole derivatives with antibacterial and . metallo-.beta-lactamase inhibitory properties” (SmithKline Beecham p.l.c., priority 1995, dated 2000).

SMILES strings stand for the structures. Like-named read-outs stand apart in the source and are kept apart here.

The target in assay [1] is B. fragilis CfiA metallo-β-lactamase (Bacteroides fragilis, UniProt P25910). The assay can be described thus: I50 screen, nitrocefin reporter substrate. In kind it is biochemical. The conditions noted are these: 25 mM PIPES pH 7, 37° C., nitrocefin 91 μM, 5 minute preincubation, Zn^2+ 100 μM. The protocol:
(§1) The inhibitory activity of the compounds of the invention was measured in 25 mM PIPES pH 7 buffer at 10 concentrations (1000, 333, 111, 37, 12.3, 4.1, 1.4 0.46, 0.15 and 0.05 μM) at 37° C. using nitrocefin (91 μM, final concentration) as the reporter substrate. The assays were performed with a 5 minute preincubation of enzyme and inhibitor and were conducted in the presence of added zinc sulphate (Zn^2+ 100 μM, final concentration). The methodology is described in detail in the following references: Payne et al (1991), J. Antimicrob. Chemother., 28:255; Payne et al (1994), Antimicrob. Agents and Chemother., 38:767.

The target in assay [2] is T1, Bacillus cereus II metallo-β-lactamase (Bacillus cereus, UniProt P04190).
T1 construct: nitrocefin assay with added zinc
T1 sequence (P04190 31-257): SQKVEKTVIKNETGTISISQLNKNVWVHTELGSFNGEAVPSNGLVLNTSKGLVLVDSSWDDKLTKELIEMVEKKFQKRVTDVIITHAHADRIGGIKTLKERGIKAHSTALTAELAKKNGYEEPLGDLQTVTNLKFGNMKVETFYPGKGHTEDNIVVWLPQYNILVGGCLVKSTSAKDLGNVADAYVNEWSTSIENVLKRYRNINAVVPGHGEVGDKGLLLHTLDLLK
As to the kind of experiment: I50 screen, nitrocefin reporter substrate. The conditions noted are these: 25 mM PIPES pH 7, 37° C., nitrocefin 91 μM, 5 minute preincubation, Zn^2+ 100 μM. In kind it is biochemical. The protocol:
as §1

For assay [3], the target named is T2, Xanthomonas maltophilia L-1 metallo-β-lactamase (Stenotrophomonas maltophilia, UniProt P52700).
T2 construct: nitrocefin assay with added zinc
T2 sequence (P52700 34-290): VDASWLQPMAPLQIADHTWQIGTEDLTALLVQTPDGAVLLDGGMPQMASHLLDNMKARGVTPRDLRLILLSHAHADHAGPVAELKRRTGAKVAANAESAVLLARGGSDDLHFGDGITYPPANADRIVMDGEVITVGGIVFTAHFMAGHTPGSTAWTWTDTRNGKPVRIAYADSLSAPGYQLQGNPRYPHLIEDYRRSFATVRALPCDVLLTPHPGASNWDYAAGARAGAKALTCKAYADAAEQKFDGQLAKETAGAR
As to the kind of experiment: I50 screen, nitrocefin reporter substrate. In kind it is biochemical. The following applies: 25 mM PIPES pH 7, 37° C., nitrocefin 91 μM, 5 minute preincubation, Zn^2+ 100 μM. The protocol: as §1

A further assay has as its system B. fragilis 460. As to the kind of experiment: Antibacterial activity (MIC) alone and in combination with carbapenem antibiotics, B. fragilis 460. In kind it is cell-based, Bacteroides fragilis. An excerpt: (§2) Antibacterial activity of compounds of the invention in combination with carbapenem antibiotics against strains of Bacteroides fragllis which produce metallo-β-lactamase:
(§3) [MIC =minimum inhibitory concentration (μg/ml)]

A further assay concerns B. fragilis 262. The assay can be described thus: Antibacterial activity (MIC) alone and in combination with carbapenem antibiotics, B. fragilis 262. In kind it is cell-based, Bacteroides fragilis.
Description: as §2, §3

[4] abbreviates: read-out: I50 values against B. fragilis CfiA metallo-β-lactamase.
[5] abbreviates: Bacteroides fragilis, alone, B. fragilis 460, CfiA, read-out: MIC alone.
Where [6] appears, read: Bacteroides fragilis, alone, B. fragilis 262, CfiA, read-out: MIC alone.
Where [7] appears, read: I50 values against B. fragilis CfiA metallo-β-lactamase.

Sequence of B. fragilis CfiA metallo-β-lactamase (P25910 19-249): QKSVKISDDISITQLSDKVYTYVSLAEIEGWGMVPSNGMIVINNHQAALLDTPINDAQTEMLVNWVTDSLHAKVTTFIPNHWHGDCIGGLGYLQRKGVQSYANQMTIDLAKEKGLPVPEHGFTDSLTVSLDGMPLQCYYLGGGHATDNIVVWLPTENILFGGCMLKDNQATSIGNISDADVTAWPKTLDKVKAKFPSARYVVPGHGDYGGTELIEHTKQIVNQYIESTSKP

Take `O=C(O)[C@H]1CCCN1C(=O)C(CS)Cc1ccccc1` (stereo partly drawn) [Example 16, N-[2'(PS)-benzyl-3'-mercaptopropionyl]-D-proline]: the IC50 in assay [1] (setting [4]) was less than 500 µM. As for `CC1(C)SCN(C(=O)C(CS)Cc2ccccc2)C1C(=O)O` [Example 19, 3-[2'(R)-benzyl-3'-mercaptopropionyl]-4(S)-carboxy-5,5-dimethylthiazolidine], the “activity against Bacillus cereus II metallo-β-lactamase” value in assay [2] was “weak but significant activity”. Further, the “activity against Xanthomonas maltophilia L-1 metallo-β-lactamase” value in assay [3] is listed as “weak but significant activity”. Regarding `O=C(O)[C@H]1CSCN1C(=O)C(CS)Cc1ccccc1` (single isomer, unassigned) [Example 30, 3-[2'(R or S)-benzyl-3'-mercaptopropionyl]-4(S)-carboxythiazolidine], in assay [1] (setting [4]), the IC50 was less than 500 µM. The same measure, in the same setting: the result for `O=C(O)[C@H]1CSCN1C(=O)C(CS)Cc1ccccc1` (stereo partly drawn) [Example 18, 3-[2'(RS)-benzyl-3'-mercaptopropionyl]-4(S)-carboxythiazolidine] reads less than 500 µM.

With `C[C@@H](O)[C@H]1C(=O)N2C(C(=O)O)=C(SCCN=CN)C[C@H]12` [Imipenem], the MIC is 16 µg/mL in the assay with B. fragilis 460 (setting [5]) and 4 µg/mL in the assay on B. fragilis 262 (setting [6]). On to `C[C@H](CS)C(=O)N1CCC[C@H]1C(=O)O` [captopril, N-(3'-mercapto-2'(S)-methylpropionyl)-L-proline, reference compound], for which, in assay [2], the “activity against Bacillus cereus II metallo-β-lactamase” value is recorded as “weak but significant activity”. In addition, the “activity against Xanthomonas maltophilia L-1 metallo-β-lactamase” value in assay [3] is given as “weak but significant activity”. `CC1(C)SCN(C(=O)C(CS)CCc2ccccc2)[C@H]1C(=O)O` (stereo partly drawn) [Example 32, 3-[2'(RS)-mercaptomethyl-4'-phenylbutanoyl]-4(S)-carboxy-5,5-dimethylthiazolidine]: in assay [1] (setting [4]), the IC50 was less than 500 µM. Same read-out and setting: as for `CC1(C)SCN(C(=O)CCS)[C@H]1C(=O)O` [Example 8, 3-[3'-Mercaptopropionyl]-4(S)-carboxy-5,5-dimethylthiazolidine], the figure is less than 500 µM. `CC1(C)SCN(C(=O)[C@@H](CS)Cc2ccccc2)[C@H]1C(=O)O` [Example 20, 3-[2'(S)-benzyl-3'-mercaptopropionyl]-4(S)-carboxy-5,5-dimethylthiazolidine]: the MIC with B. fragilis 460 (setting [5]) and in the assay on B. fragilis 262 (setting [6]) was more than 512 µg/mL each time. Moreover, the IC50 in assay [1] (setting [4]) was less than 1 µM.

On to `O=C(O)[C@H]1CSCN1C(=O)C(CS)CCCc1ccccc1` (stereo partly drawn) [Example 33, 3-[2'(RS)-mercaptomethyl-5'-phenylpentanoyl]-4(S)-carboxythiazolidine], for which, in assay [1] (setting [4]), the IC50 is less than 500 µM. On the same count and under the same terms, as for `CC(CS)C(=O)N1CSC(C)(C)C1C(=O)O` [Example 23, 3-[Mercapto-2'(S)-methylpropionyl]-4(R)-carboxy-5,5-dimethylthiazolidine], the figure is less than 500 µM; as for `CC1(C)SCN(C(=O)[C@@H](CS)Cc2ccccc2)[C@@H]1C(=O)O` [Example 28, 3-[2'(S)-benzyl-3'-mercaptopropionyl]-4(R)-carboxy-5,5-dimethylthiazolidine], less than 500 µM.

`CC1(C)[C@H](C(=O)O)N(C(=O)[C@@H](CS)Cc2ccccc2)C[S+]1[O-]` (single isomer, unassigned) [Example 27]: the “activity against Bacillus cereus II metallo-β-lactamase” value in assay [2] is given as “weak but significant activity”. Further, in assay [3], the “activity against Xanthomonas maltophilia L-1 metallo-β-lactamase” value is reported as “weak but significant activity”. `CC1(C)SCN(C(=O)[C@H](CS)Cc2ccccc2)[C@@H]1C(=O)O` [Example 29, 3-[2'(R)-benzyl-3'-mercaptopropionyl]-4(R)-carboxy-5,5-dimethylthiazolidine]: the IC50 in assay [1] (setting [4]) is less than 500 µM. Take `CC(CS)C(=O)N1CCC[C@@H]1C(=O)O` (stereo partly drawn) [Example 4, N-[3'-Mercapto-2'(RS)-methylpropionyl]-D-proline]: the IC50 in assay [1] (setting [7]) was less than 500 µM. On to `O=C(O)[C@H]1CSCN1C(=O)C(CS)Cc1ccccc1` (single isomer, unassigned) [Example 31, 3-[2'(S or R)-benzyl-3'-mercaptopropionyl]-4(S)-carboxythiazolidine], for which, in assay [1] (setting [4]), the IC50 is less than 500 µM. On the same count and under the same terms, as for `O=C(O)[C@@H]1CCCN1C(=O)C(CS)Cc1ccccc1` (stereo partly drawn) [Example 25, N-[2'(RS)-benzyl-3'-mercaptopropionyl]-L-proline], the figure is less than 500 µM; as for `CC1(C)SCN(C(=O)C(CS)Cc2ccccc2)[C@H]1C(=O)O` (stereo partly drawn) [Example 2, 3-[2'(RS)-benzyl-3'-mereaptopropionyl]-4(S)-carboxy-5,5-dimethylthiazolidine], less than 1 µM. The same measure, in the same setting: the result for `CC1(C)SCN(C(=O)C(CS)Cc2ccccc2)[C@@H]1C(=O)O` (stereo partly drawn) [Example 12, 3-[2'(RS)-benzyl-3'-mercaptopropionyl]-4(R)-carboxy-5,5-dimethylthiazolidine] reads less than 500 µM. Turning to `C[C@@H](O)[C@H]1C(=O)N2C(C(=O)O)=C(S[C@@H]3CN[C@H](C(=O)N(C)C)C3)[C@H](C)[C@H]12` [Meropenem], the MIC in the assay with B. fragilis 460 (Bacteroides fragilis, 460, read-out: MIC alone) came to 128 µg/mL; in the assay on B. fragilis 262 (Bacteroides fragilis, 262, read-out: MIC alone), 128 µg/mL. As to `CC(CS)C(=O)N1CSC(C)(C)[C@@H]1C(=O)O` (stereo partly drawn) [Example 14, 3-[3'-Mercapto-2'(S)-methylpropionyl]-4(S)-carboxy-5,5-dimethylthiazolidine], the IC50 in assay [1] (setting [4]) is less than 500 µM. `C[C@H](CS)C(=O)N1CCC[C@@H]1C(=O)O` [Example 6, N-(3'-mercapto-2'(S)-methylpropionyl)-D-proline]: the IC50 in assay [1] (setting [7]) is less than 500 µM. With `CC(CS)C(=O)N1CSC(C)(C)C1C(=O)O` [Example 21, 3-[3'-Mercapto-2'(R)-methylpropionyl]-4(S)-carboxy-5,5-dimethylthiazolidine], the “activity against Bacillus cereus II metallo-β-lactamase” value in assay [2] is listed as “weak but significant activity”. The “activity against Xanthomonas maltophilia L-1 metallo-β-lactamase” value in assay [3] is on record as “weak but significant activity”. For `CC1(C)[C@H](C(=O)O)N(C(=O)[C@@H](CS)Cc2ccccc2)C[S+]1[O-]` (single isomer, unassigned) [Example 26], the IC50 in assay [1] (setting [4]) is less than 1 µM.

In general, MIC refers to the least concentration at which growth counts as inhibited.
